By MFC is commonly meant the lowest tested concentration that kills the fungus rather than only halting it. Read a high MFC as weaker fungicidal potency.

What all share (format): functional
Experiment [1] deals with Meyerozyma guilliermondii. The experiment in a line: Fungicidal activity against Candida guilliermondii C94 incubated for 24 hrs followed by replacement of medium without compound measured after 48 hrs.
The next experiment has as its system Nakaseomyces glabratus. Put plainly: Fungicidal activity against Candida glabrata ATCC 90030 incubated for 24 hrs followed by replacement of medium without compound measured after 48 hrs.
The subject of a further experiment is Candida parapsilosis. Put plainly: Fungicidal activity against Candida parapsilosis ATCC 22019 incubated for 24 hrs followed by replacement of medium without compound measured after 48 hrs. As to conditions: Lodderomyces parapsilosis.
In a further experiment the test system is Candida albicans. The experiment in a line: Fungicidal activity against Candida albicans ATCC 10231 incubated for 24 hrs followed by replacement of medium without compound measured after 48 hrs.
The subject of a further experiment is Clavispora lusitaniae. Put plainly: Fungicidal activity against Candida lusitaniae C18 incubated for 24 hrs followed by replacement of medium without compound measured after 48 hrs.
Another experiment deals with [Candida] auris. The experiment in a line: Fungicidal activity against Candida auris ATCC CMYA-5001 incubated for 24 hrs followed by replacement of medium without compound measured after 48 hrs. As to conditions: Candidozyma auris.

Molecules are shown by their SMILES. In brackets after ≈: the same amount, converted by molar mass.

`C=CC(=O)Nc1cc(C(=O)NCc2cn([C@H]3O[C@H](CO)[C@@H](O)[C@H](O)[C@@H]3O)nn2)cc(C(=O)NCc2cn([C@H]3O[C@H](CO)[C@@H](O)[C@H](O)[C@@H]3O)nn2)c1`: the MFC (in experiment [1]; against Nakaseomyces glabratus; in the experiment with Candida parapsilosis; in the experiment on Candida albicans; in the experiment on Clavispora lusitaniae) was > 10000 µg/mL each time.
`C=CC(=O)Nc1cc(C(=O)NCc2cn([C@H]3O[C@@H](C)[C@@H](O)[C@@H](O)[C@@H]3O)nn2)cc(C(=O)NCc2cn([C@H]3O[C@@H](C)[C@@H](O)[C@H](O)[C@@H]3O)nn2)c1`: the MFC (in experiment [1]; against Nakaseomyces glabratus; in experiment [Candida] auris; in the experiment with Candida parapsilosis; in the experiment with Candida albicans; in the experiment on Clavispora lusitaniae) was > 10000 µg/mL in each case.
Turning to `CCC(=O)Nc1cc(C(=O)NCc2cn([C@@H]3O[C@H](CO)[C@H](O)[C@H](O)[C@H]3O)nn2)cc(C(=O)NCc2cn([C@@H]3O[C@H](CO)[C@H](O)[C@@H](O)[C@@H]3O)nn2)c1`, the MFC (in experiment [1]; with Nakaseomyces glabratus) was 10000 µg/mL (≈ 13.9 mM) each time.
As to `C=CS(=O)(=O)Nc1cc(C(=O)NCc2cn([C@H]3O[C@@H](C)[C@@H](O)[C@@H](O)[C@@H]3O)nn2)cc(C(=O)NCc2cn([C@H]3O[C@@H](C)[C@@H](O)[C@H](O)[C@@H]3O)nn2)c1`, the MFC (in experiment [1]; against Nakaseomyces glabratus; in experiment [Candida] auris; against Candida parapsilosis; against Candida albicans; against Clavispora lusitaniae) was > 10000 µg/mL each time.
For the molecule `C=CS(=O)(=O)Nc1cc(C(=O)NCc2cn([C@@H]3O[C@H](CO)[C@H](O)[C@H](O)[C@H]3O)nn2)cc(C(=O)NCc2cn([C@@H]3O[C@H](CO)[C@H](O)[C@@H](O)[C@@H]3O)nn2)c1`, the MFC in experiment [1] was 10000 µg/mL (≈ 13.2 mM); with Nakaseomyces glabratus it was 10000 µg/mL (≈ 13.2 mM); in experiment [Candida] auris, 10000 µg/mL (≈ 13.2 mM); in the experiment on Candida parapsilosis it was > 10000 µg/mL; against Candida albicans, > 10000 µg/mL; with Clavispora lusitaniae, > 10000 µg/mL.
